Values of other authors in patent US8961928B2, “Ligand and metal complex having the same” (National Chiao Tung University, priority 2012, dated 2015).
Read-outs that look alike come from different tables or passages of the source.

Row | SMILES | Relaxivity r1 (pH 7.6 ± 0.1, data from Inorg. Chem., 2001, 40, 2170-2176) [mM⁻¹ s⁻¹] | Relaxivity r1 (pH 7.5 ± 0.1, data from Inorg. Chem., 2005, 44, 382) [mM⁻¹ s⁻¹]
1 | O=C([O-])CN(CCN(CC(=O)[O-])CC(=O)[O-])CCN(CC(=O)[O-])CC(=O)[O-].[Gd+3] [[Gd(DTPA)]^2−] | 3.89 ± 0.03 | –
2 | O=C([O-])CN(CCCN(CC(=O)[O-])CC(=O)[O-])CCN(CC(=O)[O-])CC(=O)[O-].[Gd+3] [[Gd(TTDA)]^2−] | – | 3.85 ± 0.03
